Measurements reported in ChEMBL document CHEMBL1154198, “Chemical genetics of Plasmodium falciparum” (Nature, 2010).

Key:
Plasmodium falciparum [1] = test: ST_JUDE: Plasmodium falciparum 3D7 EC50 (uM) as measured by SYBR green dye; assay type: functional, organism-based
Plasmodium falciparum [2] = test: ST_JUDE: Plasmodium falciparum K1 EC50 (uM) as measured by SYBR green dye; assay type: functional, organism-based

Compound | EC50 (Plasmodium falciparum [1]) | EC50 (Plasmodium falciparum [2])
Cc1ccccc1NC(=O)C1c2ccccc2C(=O)N2CCc3ccccc3C12 (configuration not stated) | 4.15 µM | > 15 µM
C=CCN1C=CC(=Cc2ccc3cc(C)ccc3[n+]2CC)C=C1 | 1.4 µM | 0.55 µM
Cc1ccc2c(c1)C=C/C(=C\c1cccc[n+]1C)N2C | 0.19 µM | 0.138 µM
Cc1ccc(Nc2nc(N/N=C/c3ccc(/C=N/Nc4nc(Nc5ccc(C)cc5)nc(N5CCOCC5)n4)cc3)nc(N3CCOCC3)n2)cc1 | 1.58 µM | 1.43 µM
CCOc1cccc2sc(N(Cc3cccnc3)C(=O)C3CCCCC3)nc12 | 3.04 µM | 2.23 µM
CN(C)CCn1c(=N)n(CC(O)c2ccc(Cl)c(Cl)c2)c2ccccc21 (configuration not stated) | 0.638 µM | 3.01 µM
CCCOc1ccc(CSC2=NCCN2)cc1[N+](=O)[O-] | 6.86 µM | 6.96 µM
O=C(c1cccs1)N(Cc1cccnc1)c1nc2c(Cl)cccc2s1 | > 15 µM | 3.84 µM
O=C(CCc1ccccc1)N(Cc1cccnc1)c1nc2ccc(F)cc2s1 | > 15 µM | > 15 µM
CCCCCCCn1c(=N)n(CC(O)COc2ccccc2)c2ccccc21 (configuration not stated) | 1.59 µM | 1.43 µM
Oc1ccccc1Nc1nc(-c2cccnc2)nc2ccccc12 | > 15 µM | 2.1 µM
Cc1ccc(CN2c3ccccc3C(O)=C(/C=N/c3ccc4c(c3)N3CCN=C3S4)S2(=O)=O)cc1 | 2.18 µM | > 15 µM
CC(C)(O)C#Cc1ccc([C@@H]2C[C@H]3CN(Cc4cccc(Cl)c4)C(=O)[C@]34CCCN24)cc1 | 4.64 µM | 5.79 µM
CN(C(=O)c1cc2c(s1)-c1ccccc1S(=O)(=O)C2)c1cccc(Cl)c1 | 0.711 µM | 1.05 µM
COc1[nH]cnc2c3cc(C)ccc3nc1-2 | > 15 µM | > 15 µM
O=C1C2CC=C(Cl)CC2C(=O)N1CCCCO (configuration not stated) | 3.32 µM | 1.47 µM
CCc1ccc(OCC2c3cc(OC)c(OC)cc3CCN2C(=O)COc2ccccc2)cc1 (configuration not stated) | > 15 µM | > 15 µM
Cc1ccn2c(Nc3ccccc3)c(-c3ccccn3)nc2c1 | > 15 µM | > 15 µM
CCc1ccc(C(O)(CCC(C)C)C(CN2CCOCC2)c2ccccc2)cc1 (configuration not stated) | 2.45 µM | 1.99 µM
Cc1cc(N2CCN(C)CC2)nc(N2CCN(C(=O)c3ccc(C(C)(C)C)cc3)CC2)n1 | > 15 µM | > 15 µM
CSc1ccccc1C(=O)Nc1nc(-c2ccccn2)cs1 | 6.82 µM | 2.04 µM
Oc1ccc(Br)c2c1NC(c1ccc(Cl)cc1)C1CC=CC21 (configuration not stated) | 3.89 µM | 1.57 µM
Cc1cccc2sc(N(Cc3cccnc3)C(=O)c3ccc(C#N)cc3)nc12 | > 15 µM | 3.08 µM
CCCCc1ccc2nc(C)c(CN3CCC(C)CC3)c(O)c2c1 | > 15 µM | > 15 µM
O=C(Nc1ccccc1F)C1c2ccccc2C(=O)N(C2CCCC2)C1c1cccs1 (configuration not stated) | 1.77 µM | 2.55 µM
CC(C)C(=O)N1CCN(c2ccc([N+](=O)[O-])c(NC3CC3)c2)CC1 | 4.46 µM | 6.77 µM

Further lines, results first:

EC50 (Plasmodium falciparum [1]) | EC50 (Plasmodium falciparum [2]) | Compound
1.11 µM | > 15 µM | COC(=O)c1ccc(Nc2nc(NCc3ccccc3)c3ccccc3n2)cc1
7.69 µM | > 15 µM | Cc1cc(N(C)C)nc(Nc2ccc(NS(=O)(=O)c3cccc(Cl)c3)cc2)n1
> 15 µM | > 15 µM | CCN(C(=O)c1cc2cc3ccc(OC)cc3nc2o1)c1ccc(F)cc1
6.66 µM | > 15 µM | COC(=O)c1cn(NC(=O)c2cccc(F)c2)c(=O)c2ccccc12
2.32 µM | 3.17 µM | CC(C)(C)OC(=O)CCN1C(=O)CSC1c1cnccc1-c1ccc(Br)cc1 (configuration not stated)
4.76 µM | 1.5 µM | COc1ccc(C(NC(=O)c2cccnc2)c2cc(Cl)c3cccnc3c2O)cc1 (configuration not stated)
> 15 µM | 9.43 µM | Cc1ccc(S(=O)(=O)NCC(c2cccnc2)N2CCN(c3ccc(F)cc3)CC2)cc1 (configuration not stated)
0.853 µM | 3.98 µM | COC(=O)c1c(N)n(-c2ccc(F)cc2F)c2nc3ccccc3nc12
4.06 µM | 4.48 µM | CCN(CC)CCn1c(=N)n(CC(O)COc2ccccc2C)c2ccccc21 (configuration not stated)
> 15 µM | > 15 µM | CCOc1ccc(C2N(C)c3ccccc3N2C)cc1
> 15 µM | 6.3 µM | CCOC(=O)C1=C(CN(C)c2ccc(F)cc2)NC(=O)NC1c1ccc(Cl)cc1 (configuration not stated)
0.0619 µM | 0.0832 µM | CCOc1ccc(-c2nonc2NC(=O)c2cccc(C)c2)cc1OCC
3.21 µM | 1.63 µM | O=C(Nc1ccc(Cl)cc1)Nc1cc(Cl)cc(Cl)c1
2.89 µM | 4.87 µM | CCOC(=O)c1c(CNCCN(CC)CC)n(C)c2cc(Br)c(O)cc12
> 15 µM | > 15 µM | CCOc1ccccc1NC(=O)C(C)Oc1cccc(Br)c1 (configuration not stated)
1.06 µM | 2.98 µM | CCN1CCN(c2cc(C)c3cc(NC(=O)/C=C/c4ccccc4OC(C)C)ccc3n2)CC1
4.49 µM | 8.98 µM | CCOC(=O)C(NC(=O)CC)(Nc1ccc(S(=O)(=O)Nc2cc(C)on2)cc1)C(F)(F)F (configuration not stated)
4.03 µM | 0.776 µM | CCOC(=O)c1ccc(OCC2c3cc(OC)c(OC)cc3CCN2C(=O)Nc2ccccc2)cc1 (configuration not stated)

EC50 (Plasmodium falciparum [1]) | EC50 (Plasmodium falciparum [2]) | Compound
1.81 µM | 1.61 µM | COc1ccc(-c2onc(C(F)(F)F)c2Oc2cnn(-c3ccccc3)c2)c(O)c1
2.79 µM | > 15 µM | CCCCOc1ccc(N2C(N)=NC(N)=NC2(C)C)cc1
0.0422 µM | 0.111 µM | CCOC(=O)c1ccc(NC2=C(N3CCCCC3)C(=O)c3ccccc3C2=O)cc1
> 15 µM | > 15 µM | CCOc1ccc(C(=O)Nc2cc(C)nn2-c2nc(C)c(CC)c(O)n2)cc1OCC
> 15 µM | > 15 µM | CCc1ccc(OC(C)C(=O)Nc2nccs2)cc1 (configuration not stated)
> 15 µM | > 15 µM | O=C(O)c1ccc(S(=O)(=O)NC2=C/C(=N\S(=O)(=O)c3ccccc3)C(=O)c3ccccc32)cc1
> 15 µM | > 15 µM | CCc1c(C)nc(-n2nc(C)cc2NC(=O)c2ccccc2F)nc1O
0.852 µM | 1.49 µM | O=C1C(Nc2cccc(C(F)(F)F)c2)=C(N2CCCCC2)C(=O)c2ccccc21
> 15 µM | > 15 µM | CCO/C(O)=C1\C(C)=NC2=C(C(=O)CC(c3ccc(OC)c(OC)c3)C2)C1c1cccc([N+](=O)[O-])c1 (configuration not stated)
1.08 µM | 2.36 µM | CCOC(=O)c1cnc2ccc(OCC)cc2c1NCCCN1CCOCC1
> 15 µM | 3.93 µM | CCN(CC)S(=O)(=O)c1ccc(C(=O)NNc2nc3c(OC)ccc(OC)c3s2)cc1
0.344 µM | 0.984 µM | CCOC(=O)c1cccc(NC(=O)CC2C(=O)N(c3ccc(F)cc3)C(=O)N2C2CCCC2)c1 (configuration not stated)
> 15 µM | > 15 µM | CCCOc1ccc(/C=C/c2ccc3cccc(O)c3n2)cc1
1.19 µM | 2.64 µM | CCOc1ccc(Nc2nc(NCc3ccco3)c3ccccc3n2)cc1
1.99 µM | > 15 µM | COc1ccc(Nc2cc(C)nc(Nc3ccc(NS(=O)(=O)c4cccc(C)c4)cc3)n2)cc1
> 15 µM | > 15 µM | CCOc1ccc(C2c3cccn3CCN2C(=O)Nc2cccc(C)c2)cc1 (configuration not stated)
4.49 µM | 5.49 µM | COC(=O)C1=CN(Cc2ccc(C)cc2)C=C(C(=O)OC)C1c1cc(OC)c(OC)c(OC)c1
